This data set in a line: Solubility study of FTY720 salts in various solvents. In kind it is physicochemical. As to conditions: approx. values at 25° C. How it is done:
The solubilities of various salts were assessed and are given in the table below (approx. values at 25° C., g/100 ml %): […]

Results on two compounds are retold here after patent US8680146B2, “Organic compounds” (Novartis AG, priority 2008, dated 2014).

Take `CCCCCCCCc1ccc(CCC(N)(CO)CO)cc1` [Free Base, 2-amino-2-[2-(4-octylphenyl)ethyl]propane-1,3-diol]: the “Solubility in 0.1N HCl” value is >2 g/100 ml %, the “Solubility in Acetone” value worked out at 0.52 g/100 ml %, the “Solubility in Ethanol” value is listed as 3.88 g/100 ml % and the “Solubility in Ethylacetate” value came to 0.45 g/100 ml %. Besides, the “Solubility in Isopropanol” value was determined as 2.03 g/100 ml %, the “Solubility in Octanol” value was 1-2 g/100 ml %, the “Solubility in Water” value stood at 0.018 g/100 ml % and the “Solubility in pH 6.88 phosphate buffer” value is reported as <0.001 g/100 ml %.

Consider `CCCCCCCCc1ccc(CCC(N)(CO)CO)cc1.Cl` [Hydrochloride, 2-amino-2-[2-(4-octylphenyl)ethyl]propane-1,3-diol hydrochloride salt], for which the “Solubility in 0.1N HCl” value is >2 g/100 ml %, the “Solubility in Acetone” value turned out to be 0.08 g/100 ml %, the “Solubility in Ethanol” value was >7.94 g/100 ml % and the “Solubility in Ethylacetate” value was determined as 0.03 g/100 ml %. Also, the “Solubility in Isopropanol” value was 4.51 g/100 ml %, the “Solubility in Octanol” value is 1-2 g/100 ml %, the “Solubility in Water” value is >10 g/100 ml % and the “Solubility in pH 6.88 phosphate buffer” value was <0.001 g/100 ml %.
